Test results published in ChEMBL document CHEMBL4007491, “Structure-based drug design of novel ASK1 inhibitors using an integrated lead optimization strategy” (Bioorg Med Chem Lett, 2017).

Target: T1, Tyrosine-protein kinase Mer (Homo sapiens, UniProt Q12866)
T1 sequence (Q12866 whole entry): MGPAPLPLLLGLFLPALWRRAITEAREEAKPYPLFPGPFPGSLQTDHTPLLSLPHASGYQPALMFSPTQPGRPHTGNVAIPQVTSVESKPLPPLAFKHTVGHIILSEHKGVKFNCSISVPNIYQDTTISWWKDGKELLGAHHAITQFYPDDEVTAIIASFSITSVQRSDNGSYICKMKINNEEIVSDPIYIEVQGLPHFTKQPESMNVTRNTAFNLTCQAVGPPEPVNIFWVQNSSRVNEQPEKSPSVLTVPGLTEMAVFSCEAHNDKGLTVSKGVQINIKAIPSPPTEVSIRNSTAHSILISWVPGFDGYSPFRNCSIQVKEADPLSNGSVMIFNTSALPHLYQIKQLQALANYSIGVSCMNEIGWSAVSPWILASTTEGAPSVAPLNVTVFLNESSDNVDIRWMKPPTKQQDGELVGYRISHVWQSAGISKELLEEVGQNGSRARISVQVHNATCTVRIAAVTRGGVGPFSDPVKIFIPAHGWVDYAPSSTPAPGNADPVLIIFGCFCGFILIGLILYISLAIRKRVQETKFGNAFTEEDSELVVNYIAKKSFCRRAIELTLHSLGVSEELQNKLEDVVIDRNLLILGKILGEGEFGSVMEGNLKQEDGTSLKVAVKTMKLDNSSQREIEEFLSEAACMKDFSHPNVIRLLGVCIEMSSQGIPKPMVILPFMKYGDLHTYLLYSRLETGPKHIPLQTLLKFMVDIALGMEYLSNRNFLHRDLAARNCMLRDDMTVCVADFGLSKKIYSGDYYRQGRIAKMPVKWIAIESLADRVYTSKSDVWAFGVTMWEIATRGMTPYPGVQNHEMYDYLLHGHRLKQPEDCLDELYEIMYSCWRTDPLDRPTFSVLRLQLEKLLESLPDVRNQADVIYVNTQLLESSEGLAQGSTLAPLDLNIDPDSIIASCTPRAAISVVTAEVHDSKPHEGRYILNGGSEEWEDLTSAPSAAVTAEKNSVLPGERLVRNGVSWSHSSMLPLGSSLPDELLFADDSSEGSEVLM
Assay: Inhibition of recombinant human GST-tagged MER cytoplasmic domain expressed in baculovirus expression system

IC50: 7.59 µM
Compound: COCCn1cc(NC(=O)c2csc(-c3nncn3C(C)C)n2)cn1
